# Experimental data as given in PubChem BioAssay AID1918941 (Molecular Pharmacology Branch, DTP, NCI, 2023).
# pIC50: −log10 of the molar value.
# Tested on: SW 1271 complex spheroids, viability
# Experiment: Anticancer human tumor SW 1271 cell line growth inhibition [LSD1];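 also: spheroids exposed to agents for 7 days before luminescence read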;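 as to viability, T/C: 100% = DMSO vehicle control viability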
# Conditions: for pIC50: curve of first compound; for viability, T/C: stronger effect = lower value
# Text: Multicellular complex tumor spheroid response to LSD1 Inhibitor Iadademstat in combination with a variety of drugs and investigational agents in selected tumor cell lines
# The current study was undertaken to assess response to LSD1 inhibitors in combination with standard-of-care drugs and investigational agents in solid tumor complex spheroid models as well as in the K-562 leukemia. Complex spheroids include a stromal component modeled by human endothelial cells (HUVEC) and fibroblasts modeled by human mesenchymal stem cells (MSCs). The concentration ranges selected for each drug and investigational agent were based upon clinically achievable concentrations if the clinical Cmax of the agent was known.
# Compounds. The drugs and investigational agents used in this study are listed on Table 1. All of the agents used, including staurosporine (NSC755774) and gemcitabine (NSC613327), were obtained from the Developmental Therapeutics Program, NCI. FDA-approved anticancer drugs are available from the NCI at http://dtp.nci.nih.gov/branches/dscb/oncology_drugset_explanation.html. Drugs and investigational agents were >95% pure by proton nuclear magnetic resonance (NMR) and liquid chromatography/mass spectrometry (LC/MS). Stock solutions were prepared at 400x in DMSO, stored at -70 degrees C, and diluted in fresh medium prior to their use. The final concentration of DMSO in cell culture wells never exceeded 0.25% (v/v). The FDA-approved anticancer drug set is available from the Developmental Therapeutics Program at https://dtp.cancer.gov/organization/dscb/obtaining/available_plates.htm. All drugs and investigational agents were tested over a range starting from a high concentration at or near the clinical Cmax and decreasing in half-log increments. If the clinical Cmax for an agent had not been determined, the highest concentration tested was 10 microM.
# Cell Lines. The patient-derived cancer cell (PDC) lines: 292921-168-R-J2-PDC, K24384-001-R-PDC, and 521955-158-R2-J5-PDC pancreatic carcinomas, 556581-035-R-J1 ovarian carcinoma, 324938-238-R-J1-PDC, 855422-203-R-J1-PDC and 883617-216-R-J1-PDC urothelial bladder carcinomas, 743489-274-T-PDC renal cell carcinoma, 138582-R-J1 Merkel cell tumor, K60290-347-R-J1 and K57222-313-R-J1-PDC glioblastomas, 653999-131-R-J2-PDC, LG0703-F948-PDC, and 349418-098-R-PDC non-small cell lung carcinomas, 885512-296-R-J2-PDC, 171881-019-R-J1-PDC breast carcinomas and 186277-243-T-J2-PDC and 233499-124-R-J2-PDC colon carcinomas were obtained from the NCI Patient-Derived Models Repository (PDMR, https://pdmr.cancer.gov). The established cell lines NCI/ADR-RES (RRID:CVCL_14520 and OVCAR-5 (RRID:CVCL_1628) ovarian carcinomas, 786-O (RRID:CVCL_1051) and A498 (RRID:CVCL_A498) renal cell carcinoma, NCI-H211 (ATCC, cat. CRL-5824; RRID:CVCL_1529), NCI-H196 (ATCC, cat. CRL-5823, RRID:CVCL_1509), SW 1271 (ATCC, cat. CRL-2177, RRID:CVCL_1716) and NCI-H1876 (ATCC, cat. CRL-5902, RRID:CVCL_1503) small cell lung carcinomas, MDA-MB-231 (RRID:CVCL_0062) and MDA-MB-468 (RRID:CVCL_0419)breast carcinomas (10-12). Pooled donor human umbilical vein endothelial cells (HUVEC, Lonza, cat. CC-2519) and human mesenchymal stem cells (hMSC, Lonza, cat. PT-2501) were purchased from Lonza (Walkersville, MD).
# Cell Culture. All cells were maintained in an incubator at 37 degrees C and 5% CO2 with 95% humidity. The PDC lines were cultured according to standard operating procedures established by the NCI PDMR (https://pdmr.cancer.gov). Briefly all PDCs were thawed and cultured in Matrigel-coated flasks prepared with a working solution of 1X Ham's F-12 nutrient mix, without supplementation (Invitrogen, Waltham, MA, cat. 11765054), 100 U/mL penicillin-streptomycin (Invitrogen, cat. 15140122), and 2.5% Matrigel (Corning Inc., Corning, NY, cat. 354248) for the first three passages. […]
structure (smiles),measurement,setting,value
CCc1c2c(nc3ccc(O)cc13)-c1cc3c(c(=O)n1C2)COC(=O)[C@]3(O)CC + NC1CC1c1ccc(-c2cccc(O)c2)cc1,pIC50,second compound 0.1 µM,> 9.02
same,pIC50,second compound 0.316 µM,8.97
same,pIC50,second compound 1 µM,> 9.02
same,pIC50,second compound 3.16 µM,> 9.02
same,pIC50,second compound 10 µM,8.55
same,"viability, T/C","second compound 0.1 µM, first compound 0.000949 µM",48.1%
same,"viability, T/C","second compound 0.1 µM, first compound 0.003 µM",46%
same,"viability, T/C","second compound 0.1 µM, first compound 0.00949 µM",26.5%
same,"viability, T/C","second compound 0.1 µM, first compound 0.03 µM",8.18%
same,"viability, T/C","second compound 0.1 µM, first compound 0.0949 µM",8.27%
same,"viability, T/C","second compound 0.1 µM, first compound 0.3 µM",3.92%
same,"viability, T/C","second compound 0.316 µM, first compound 0.000949 µM",50.5%
same,"viability, T/C","second compound 0.316 µM, first compound 0.003 µM",45.4%
same,"viability, T/C","second compound 0.316 µM, first compound 0.00949 µM",25.9%
same,"viability, T/C","second compound 0.316 µM, first compound 0.03 µM",10.3%
same,"viability, T/C","second compound 0.316 µM, first compound 0.0949 µM",8.68%
same,"viability, T/C","second compound 0.316 µM, first compound 0.3 µM",6.46%
same,"viability, T/C","second compound 1 µM, first compound 0.000949 µM",49.4%
same,"viability, T/C","second compound 1 µM, first compound 0.003 µM",43%
same,"viability, T/C","second compound 1 µM, first compound 0.00949 µM",27.4%
same,"viability, T/C","second compound 1 µM, first compound 0.03 µM",9.38%
same,"viability, T/C","second compound 1 µM, first compound 0.0949 µM",5.98%
same,"viability, T/C","second compound 1 µM, first compound 0.3 µM",3.79%
same,"viability, T/C","second compound 3.16 µM, first compound 0.000949 µM",48.2%
same,"viability, T/C","second compound 3.16 µM, first compound 0.003 µM",50.2%
same,"viability, T/C","second compound 3.16 µM, first compound 0.00949 µM",26.7%
same,"viability, T/C","second compound 3.16 µM, first compound 0.03 µM",9.15%
same,"viability, T/C","second compound 3.16 µM, first compound 0.0949 µM",5.19%
same,"viability, T/C","second compound 3.16 µM, first compound 0.3 µM",5.82%
same,"viability, T/C","second compound 10 µM, first compound 0.000949 µM",56.6%
same,"viability, T/C","second compound 10 µM, first compound 0.003 µM",48.5%
same,"viability, T/C","second compound 10 µM, first compound 0.00949 µM",30.1%
same,"viability, T/C","second compound 10 µM, first compound 0.03 µM",9.23%
same,"viability, T/C","second compound 10 µM, first compound 0.0949 µM",7.28%
same,"viability, T/C","second compound 10 µM, first compound 0.3 µM",5.03%
